In patent US20220213070A1, “COMPOUNDS INHIBITING TDG ACTIVITY” (EPITAS BIOSCIENCES (SHANGHAI) CO., LTD., priority 2019, published 2022) one finds IC50 and inhibition data, which are given here for 15 compounds.

Each structure is given as a SMILES string. Some results are limits rather than exact numbers.

Experiment [1] concerns the target T1, TDG (Homo sapiens, UniProt Q13569). The experiment in a line: Inhibition of TDG mismatch repair activity (fluorescent G·U double-stranded DNA probe T1-T2). Type of experiment: biochemical. To be noted: TDG 100 nM/L, preincubated with compound 37° C. 30 minutes; probe 30 nM; read-out: Inhibitory activity on TDG mismatch repair IC50. The text has this: 14.1 Experimental Determination of Compound's Inhibitory Rate on TDG Mismatch Repair Activity
(1) A double-stranded DNA probe T1-T2 containing uracil bases was synthesized. The nucleotide sequence of the T1 chain was: 5′-FAM-TAAUGTGAATGGAGCTGAAAT-biotin-3′; The nucleotide sequence of the T2 chain was 5′-ATTTCAGCTCCATTCACGTTA-3′. Using PCR annealing program, the T1 strand and T2 strand were complementary to form a double-stranded DNA probe T1-T2.
(2) The reaction system and steps for each well of a 96-well plate were as follows: a. TDG (100 nM/L) was mixed with different concentrations of compounds, and the mixture was incubated at 37° C. for 30 minutes. The composition of the reaction buffer was: 20 mM HEPES pH7.5, 100 mM NaCl, 0.2 mM EDTA, 2.5 mM MgCl2; b. The double-stranded DNA probe T1-T2 was added to the mixture to obtain a final volume of 100 μL, with a concentration of 30 nM, and the mixture was incubated at 25° C. for 30 min; c. 1 μL of streptavidin magnetic beads were added to the reaction solution and fully bound the biotin-labeled DNA for 1 hour; d. NaOH was added to the reaction solution to a final concentration of 200 mM, and the mixture was incubated at room temperature for 30 minutes; e. Under the action of a magnetic stand the streptavidin magnetic beads were adsorbed to the tube wall, the supernatant was transferred to a new 96-well plate, and placed in a Tecan microplate reader for fluorescence measurement. The parameter settings were: excitation wavelength 485 nm; emission wavelength 520 nm. A linear curve between fluorescence intensity and TDG concentration was constructed, R^2=0.9968, and the linear range was 0-50 nM/L;
According to the biological method described in this example, the selected compounds of the present invention were analyzed, and the results are shown in Table 1. Among them, “++” in Table 1 refers to the inhibitory activity for TDG mismatch repair with IC50≤5 μM; “+” refers to the inhibitory activity for TDG mismatch repair with IC50>5 μM.

Experiment [2] relates to Lung cancer cell line Calu-1. Kind of experiment: Inhibition of the growth of Calu-1 cells (CellTiter-Glo, 72 hours). It counts as cell-based. To be noted: Homo sapiens, 72 hours of culturing, read-out: Inhibitory activity on alu-1 cell growth IC50. The procedure:
14.2 Experimental Determination of Compound's Inhibitory Rate on the Growth of Calu-1 Cells
Lung cancer cell line Calu-1 was cultured in 90% McCoy's 5A medium (BI, 01-075-1ACS)+10% fetal bovine serum (Gibco, 10270106), placed in a CO2 incubator (37° C., 5% CO2, 95% air) for culturing. Calu-1 cells were digested with trypsin (Gibco, 12604-021) and seeded in a 384-well plate at a density of 500 cells per well. The medium was 50 μL and it was cultured overnight at 37° C. in an incubator. On the next day, different concentrations of test compounds were added, and the final concentration of DMSO was 0.1%. After 72 hours of culturing, the cells were taken out for test. The cell culture medium from the 384-well plate to be tested was removed, and fresh culture medium premixed with CTG was immediately added: the ratio of the culture medium to CellTiter-Glo® 2.0 reagent (Promega, G9243) was 2:1, 30 ul was added to each well. The plate was shaken at room temperature for 20 minutes, and then a multi-function plate reader (TECAN, Infinite 200 Pro) was used according to the reagent instructions to determine the cell survival.
According to the biological method described in this example, the selected compounds of the present invention were analyzed, and the results are shown in Table 1. Among them, “++” in Table 1 refers to the inhibitory activity on the growth of calu-1 cells with IC50≤5 μM; “+” refers to the inhibitory activity on the growth of calu-1 cells with IC50>5 μM.

The target in experiment [3] is T1, TDG. Kind of experiment: TDG inhibitory activity of compounds in cells (caC-cmv-firefly luciferase reporter, HEK 293T TDG KO cells transfected with pCDNA4-TDG). Type of experiment: cell-based. To be noted: read-out: Inhibition rate on TDG activity. Here is the method: Experimental Determination of TDG Inhibitory Activity of Compounds in Cells
The operation steps of this example are as follows:
(1) Preparation of Methylation Reporter Plasmid:
(a) SAM with a stock solution concentration of 32 mM was diluted with ultrapure water to 1600 μM;
(b) The reaction system was prepared according to the following ratio: 30 μl ultrapure water, 5 μl 10×NEBuffer 2, 5 μl diluted SAM, 1 μg pCpGL-CMV-firefly plasmid, 1 μl SssI methylase (4 U/μl); 50 μl in total, the reaction was carried out at 37° C. for 2 hours;
(c) The mixture was heated at 65° C. for 20 minutes. Then 0.2% SDS was added, the reaction was carried out at 80° C. for 10 min; and then 1 μl Proteinase K was added, the reaction was carried out at 50° C. for 1 h;
(d) The methylated plasmid was recovered with Dr. GenTLE® sedimentation aid (TAKARA).
(2) Preparation of 5fC/5caC pCpGL-CMV-Firefly Reporter Plasmid
(a) The following 10× reaction system was prepared:
(b) The reaction system was prepared according to the following ratio:
(c) The reaction was carried out at 37° C. for one hour;
(d) 24 μg Tet1 protein was added for the second time and the reaction was continued for one hour;
(e) SDS was added to a final concentration of 0.5%, 80° C., 10 minutes, then 1 μl Proteinase K was added, 55° C. overnight.
(f) The treated caC-cmv-firefly plasmid was recovered with Dr. GenTLE® sedimentation aid (TAKARA) and was quantified.
(3) Using the Luciferase Activity Assay Method to Detect the Inhibitory Rate of Small Molecule Compounds on Intracellular TDG Enzyme Activity
In a 96-well plate, the reaction system and operation flow of each well were as follows:
(a) 1 ng caC-cmv-firefly, Ing pCpGL-CMV-Relina and 150 ng pCDNA4-TDG or 150 ng pCDNA4-myc plasmid, were diluted to 75 ul Opti-MEM, mixed well and allowed to stand still for 5 minutes;
(b) 2 ul transfection reagent (Hieff Trans™ Liposomal transfection Reagent (0.5 ul/well, YEAEEN, Cat #40802)) was diluted in 100 ul Opti-MEM, mixed well and allowed to stand still for 5 minutes;
(c) 75 ul of (a) and (b) were mixed respectively, and allowed to stand still at room temperature for 20 minutes;
(d) HEK 293T TDG KO cells were digested with trypsin, the cells were collected and counted, and the suspension cell concentration was adjusted to 4×10^5/ml;
(e) 50 ul of the mixture (c) was added to each well, and at the same time 100 ul of the diluted cell suspension was added to the same well, and they were mixed well.
(f) After the cells adhering to the wall, different concentrations of small molecule compounds to be tested were added to each well.
(g) Incubation was performed in a 37° C. CO2 incubator for 72 hours. The supernatant was removed and the cells were quickly freezed at −80° C.
(h) Before detecting the luciferase activity, the cells to be tested were removed from −80° C. and allowed to stand still at room temperature for 30 minutes. Following the instructions of Dual-Glo® Luciferase Reagent (PROMEGA), the firefly fluorescence value and Renilla fluorescence value of each well were detected.
(i) The firefly fluorescence value was divided with the Renilla fluorescence value of each well; 96-well plate Z′ and experimental window was calculated by the ratio of transfected caC-cmv-firefly, pCpGL-CMV-Relina, pCDNA4-TDG plasmid mixture plus DMSO experimental group to transfected caC-cmv-firefly, pCpGL-CMV-Relina, pCDNA4-myc plasmid mixture plus DMSO experimental group, and the relative enzyme activity inhibition rate of each compound was calculated.
According to the biological method described in this example, the selected compounds of the present invention were analyzed, and the results are shown in Table 2. Among them, “+” in Table 2 refers to the compound's TDG inhibitory activity at a concentration of 10 μM≤25%; “++” refers to the compound's TDG inhibitory activity at a concentration of 10 μM>25%.

T1 sequence (Q13569 whole entry): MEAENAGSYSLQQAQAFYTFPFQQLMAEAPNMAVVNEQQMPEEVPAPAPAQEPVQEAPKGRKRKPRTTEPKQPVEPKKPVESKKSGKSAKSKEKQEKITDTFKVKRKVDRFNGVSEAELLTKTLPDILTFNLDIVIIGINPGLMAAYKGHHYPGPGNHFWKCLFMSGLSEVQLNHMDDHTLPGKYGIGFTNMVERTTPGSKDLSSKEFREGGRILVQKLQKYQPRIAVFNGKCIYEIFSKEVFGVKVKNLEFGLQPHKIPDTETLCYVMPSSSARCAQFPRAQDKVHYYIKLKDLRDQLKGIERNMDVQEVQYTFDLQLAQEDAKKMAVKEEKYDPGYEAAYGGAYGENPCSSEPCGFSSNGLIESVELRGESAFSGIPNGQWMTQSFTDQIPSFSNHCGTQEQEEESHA

One may read the IC50 as the point on the concentration scale where inhibition reaches its midpoint. For orientation: inhibition means the percentage by which the read-out fell short of the control. On to `O=C(CCN1CCOc2ccccc21)c1ccc2c(c1)OCCO2` [Compound 15, 3-(2,3-dihydro-4H-benzo[b][1,4]oxazin-4-yl)-1-(2,3-dihydrobenzo[b][1,4]dioxin-6-yl)propan-1-one], for which the IC50 in experiment [1] and in experiment [2] was more than 5 µM each time. Also, in experiment [3], the inhibition at 10 µM is less than 25%.
Turning to `O=C(CCN1CCCC1)c1ccc2c(c1)OCCO2` [Compound 16, 1-(2,3-dihydrobenzo[b][1,4]dioxin-6-yl)-3-(pyrrolidin-1-yl)propan-1-one], the IC50 in experiment [1] is not above 5 µM; in experiment [2], more than 5 µM. In addition, in experiment [3], the inhibition at 10 µM is less than 25%.
Take `O=C1CCN(CCC(=O)c2ccc3c(c2)OCCO3)C1` [Compound 17, 1-(3-(2,3-dihydrobenzo[b][1,4]dioxin-6-yl)-3-oxopropyl)pyrrolidin-3-one]: the IC50 was not above 5 µM in experiment [1] and more than 5 µM in experiment [2]. The inhibition at 10 µM in experiment [3] is less than 25%.
Regarding `O=C(CCn1ccc(-c2ccc(F)cc2)cc1=O)c1ccc2c(c1)OCCO2` [Compound 18, 1-(3-(2,3-dihydrobenzo[b][1,4]dioxin-6-yl)-3-oxopropyl)-4-(4-fluorophenyl)pyridine-2(1H)-one], the IC50 was not above 5 µM in experiment [1] and more than 5 µM in experiment [2]. Further, the inhibition at 10 µM in experiment [3] is more than 25%.
For `O=C(CCN1CCN(c2ncccn2)CC1)c1ccc2c(c1)OCCO2` [Compound 19, 1-(2,3-dihydrobenzo[b][1,4]dioxin-6-yl)-3-(4-(pyrimidin-2-yl)piperazin-1-yl)propan-1-one] the same measures were more than 5 µM, not above 5 µM and less than 25%.
For `O=C(CCNc1ccc2cnccc2c1)c1ccc2c(c1)OCCO2` [Compound 20, 1-(2,3-dihydrobenzo[b][1,4]dioxin-6-yl)-3-(isoquinolin-6-ylamino)propan-1-one] the same measures were more than 5 µM, more than 5 µM and less than 25%.
For `O=C(CCN1CCC(c2ccccc2)CC1)c1ccc2c(c1)OCCO2` [Compound 21, 1-(2,3-dihydrobenzo[b][1,4]dioxin-6-yl)-3-(4-phenylpiperidin-1-yl)propan-1-one] the same measures were not above 5 µM, more than 5 µM and less than 25%.
For `O=C(CCN1C(=O)CSC1=S)c1ccc2c(c1)OCCO2` [Compound 22, 3-(3-(2,3-dihydrobenzo[b][1,4]dioxin-6-yl)-3-oxopropyl)-2-thiothiazolidine-4-one], the IC50 in experiment [1] and in experiment [2] was more than 5 µM throughout. For the same compound, the inhibition at 10 µM in experiment [3] was less than 25%.
For the compound `CC(C)(C)OC(=O)NCC1(O)CN(CCC(=O)c2ccc3c(c2)OCCO3)C1` [Compound 23, tert-butyl ((1-(3-(2,3-dihydrobenzo[b][1,4]dioxin-6-yl)-3-oxopropyl)-3-hydroxyazetidin-3-yl)methyl)carbamate], the IC50 in experiment [1] and in experiment [2] was more than 5 µM throughout. In addition, the inhibition at 10 µM in experiment [3] is less than 25%.
For the compound `COc1ccc2cn(CCC(=O)c3ccc4c(c3)OCCO4)nc2c1` [Compound 24, 1-(2,3-dihydrobenzo[b][1,4]dioxin-6-yl)-3-(6-methoxy-2H-indazol-2-yl)propan-1-one], the IC50 in experiment [1] and in experiment [2] was more than 5 µM each time. Also, in experiment [3], the inhibition at 10 µM is less than 25%.
For `O=C(CCn1ncc2ccncc21)c1ccc2c(c1)OCCO2` [Compound 25, 1-(2,3-dihydrobenzo[b][1,4]dioxin-6-yl)-3-(1H-pyrazolo[3,4-c]pyridine-1-yl)propan-1-one], the half-maximal inhibitory concentration (IC50) in experiment [1] and in experiment [2] was more than 5 µM each time. Moreover, the inhibition at 10 µM in experiment [3] is less than 25%.
In the case of `O=C(CCNC1=NCc2ccccc21)c1ccc2c(c1)OCCO2` [Compound 26, 3-((1H-isoindo1-3-yl)amino)-1-(2,3-dihydrobenzo[b][1,4]dioxin-6-yl)propan-1-one], the IC50 in experiment [1] and in experiment [2] was more than 5 µM each time. In addition, the inhibition at 10 µM in experiment [3] is less than 25%.
As for `O=C(CCN1CCC(=O)c2ccccc21)c1ccc2c(c1)OCCO2` [Compound 27, 1-(3-(2,3-dihydrobenzo[b][1,4]dioxin-6-yl)-3-oxopropyl)-2,3-dihydroquinoline-4(1H)-one], the IC50 in experiment [1] and in experiment [2] was more than 5 µM throughout. The inhibition at 10 µM in experiment [3] is less than 25%.
As to `O=C(CCn1cc(-c2ccccc2)cn1)c1ccc2c(c1)OCCO2` [Compound 28, 1-(2,3-dihydrobenzo[b][1,4]dioxin-6-yl)-3-(4-phenyl-1H-pyrazol-1-yl)propan-1-one], the IC50 in experiment [1] and in experiment [2] was more than 5 µM each time. Further, the inhibition at 10 µM in experiment [3] is less than 25%.
Regarding `c1ccc2c(c1)CN(CCCc1ccc3c(c1)OCCO3)C2` [Compound 29, 2-(3-(2,3-dihydrobenzo[b][1,4]dioxin-6-yl)propyl)isoindoline], the IC50 in experiment [1] and in experiment [2] was more than 5 µM each time. Further, the inhibition at 10 µM in experiment [3] was more than 25%.
